Data from patent US9815851B2, “Pyrrolo carboxamides as modulators of orphan nuclear receptor RAR-related orphan receptor-gamma (RORγ, NR1F3) activity and for the treatment of chronic inflammatory and autoimmune diseases” (PHENEX PHARMACEUTICALS AG, priority 2011, dated 2017).
Like-named read-outs stand apart in the source and are kept apart here.

Assays:
RORγ = target: T1, RORγ (UniProt P51449); assay: RORγ Gal4 Reporter Gene Assay in 293T cells (firefly and renilla luciferase); format: cell-based, human
T1 sequence (P51449 1-518): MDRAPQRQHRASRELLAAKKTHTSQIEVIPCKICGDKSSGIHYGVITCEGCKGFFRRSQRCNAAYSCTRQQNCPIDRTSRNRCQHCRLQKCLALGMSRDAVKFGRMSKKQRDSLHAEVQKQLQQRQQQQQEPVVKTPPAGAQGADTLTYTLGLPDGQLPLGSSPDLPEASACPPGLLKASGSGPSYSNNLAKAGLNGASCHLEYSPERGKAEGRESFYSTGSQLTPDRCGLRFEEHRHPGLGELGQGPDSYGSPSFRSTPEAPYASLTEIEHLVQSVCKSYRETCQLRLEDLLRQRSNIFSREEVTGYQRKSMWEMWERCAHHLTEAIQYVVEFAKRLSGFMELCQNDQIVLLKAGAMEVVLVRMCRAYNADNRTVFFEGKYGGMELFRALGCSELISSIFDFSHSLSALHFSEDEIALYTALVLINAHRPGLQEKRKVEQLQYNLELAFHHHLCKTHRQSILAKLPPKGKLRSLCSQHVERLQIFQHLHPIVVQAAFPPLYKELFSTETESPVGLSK

[1] = target: T2, RORγ ligand binding domain (LBD) (Homo sapiens, UniProt P51449); assay: TR-FRET Activity Assay (ligand sensing, RORγ-LBD / coactivator peptide interaction, LANCE); format: biochemical
T2 construct: made in house; host or cells: E. coli BL-21 (BL3), vector pDEST15
T2 sequence (P51449 269-508 limits assumed): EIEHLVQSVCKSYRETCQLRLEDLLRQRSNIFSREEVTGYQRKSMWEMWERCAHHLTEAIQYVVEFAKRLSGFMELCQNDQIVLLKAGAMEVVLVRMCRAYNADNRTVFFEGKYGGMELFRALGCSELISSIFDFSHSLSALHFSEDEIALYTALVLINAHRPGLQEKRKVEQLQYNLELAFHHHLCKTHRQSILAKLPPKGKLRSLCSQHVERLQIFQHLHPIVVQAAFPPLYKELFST

[2] = second value of the cell, Gal4 reporter gene assay in 293T cells, firefly luciferase
[3] = third value of the cell, Gal4 reporter gene assay in 293T cells, renilla normalised luciferase
[4] = first value of the cell FRET/FF/REN, TR-FRET activity assay, read-out: pIC50 (FRET) (converted)

Structure (SMILES)	pIC50 (FF) (RORγ; [2])	pIC50 (REN) (RORγ; [3])	IC50 [1, 4]	pIC50 (FF) (RORγ)	pIC50 (REN) (RORγ)	IC50 [1]
Cc1c(C(=O)NC2CCOCC2)cc(-c2ccc(C(=O)NC3CCCCC3)c(C(F)(F)F)c2)n1CC1CCCCC1 [6/9]	6.4	6.2	10000 nM			
Cc1c(C(=O)NCCCCCS(N)(=O)=O)cc(-c2cc(C(C)(C)C)c3c(c2)C2(CCO3)CC2)n1CC1CCCCC1 [17/114]	6.5	6.4	631 nM			
Cc1c(C(=O)NCC2CCS(=O)(=O)CC2)cc(-c2cc(C(C)(C)O)cc(C3(C)CC3)c2)n1CC1CCCCC1 [17/320]				5.8/7.3/7.3	5.8/7.3/7.3	1580 nM
Cc1c(C(=O)N[C@H]2C[C@H](C(=O)O)C2)cc(-c2cc(OCC(C)(C)C)nc(C(C)(C)C)c2)n1CC1CCCCC1 [17/195]	7.6	7.6	631 nM			
Cc1c(C(=O)NC2CCOCC2)cc(-c2ccc(S(=O)(=O)NC(C)(C)CCO)c(C(F)(F)F)c2)n1CC1CCCCC1 [17/108]	6.9	7.1	1000 nM			
CC(C)(C)NS(=O)(=O)c1ccc(-c2c(Cl)c(C(=O)NC3CCOCC3)c(Cl)n2CC2CCCCC2)c2ccccc12 [Example 23, 5-(4-(N-(tert-Butyl)sulfamoyl)naphthalen-1-yl)-2,4-dichloro-1-(cyclohexylmethyl)-N-(tetrahydro-2H-pyran-4-yl)-1H-pyrrole-3-carboxamide]				6.7/8.5/8.5	6.7/8.5/8.5	200 nM
Cc1c(C(=O)NC2CSC2)cc(-c2cc(C(C)(C)C)cc(C(C)(C)C)c2)n1CC1CCCCC1 [1/14]				5.7/6.5/6.6	5.7/6.5/6.6	2000 nM
Cc1c(C(=O)NC2CCOCC2)cc(-c2ccc(CN3CCOCC3)c(C(F)(F)F)c2)n1CC1CCCCC1 [Example 33, 1-(Cyclohexylmethyl)-2-methyl-5-(4-(morpholinomethyl)-3-(trifluoromethyl)phenyl)-N-(tetrahydro-2H-pyran-4-yl)-1H-pyrrole-3-carboxamide]	6.2	6.3	3160 nM			
Cc1c(S(=O)(=O)NC(C)(C)C)ccc(-c2cc(C(=O)N[C@H]3C[C@H](C(=O)O)C3)c(C)n2CC2CCCCC2)c1Cl [17/275]	7.0	7.0	631 nM			
Cc1c(C(=O)NC[C@H]2CCCO2)cc(-c2cc(C(C)(C)C)c3c(c2)C2(CCO3)CC2)n1CC1CCCCC1 [17/5]	6.4	6.4	316 nM			
Cc1c(C(=O)NCC(C)(C)O)cc(-c2cc(C(=O)NC(C)(C)C)cc(C3(C)CC3)c2)n1CC1CCCCC1 [1/111]				6.4/7.4/7.4	6.4/7.4/7.4	398 nM
Cc1c(C(=O)NCC(C)(C)O)cc(-c2ccc(S(=O)(=O)NC(C)(C)C)c3ccccc23)n1CC1CCCC(F)C1 (stereo not drawn) [17/370]	7.2	7.3	2000 nM			
Cc1c(C(=O)NC2COC2)cc(-c2cc(OCC(C)(C)C)nc(C(F)(F)F)c2)n1CC1CCCCC1 [1/16]	6.1	5.8	6310 nM			
Cc1c(C(=O)NC2CCOCC2)cc(-c2cc(C(=O)NCC(F)(F)F)cc(C3(C)CC3)c2)n1CC1CCCCC1 [17/352]	7.5	7.5	631 nM			
Cc1c(C(=O)N[C@H]2CC[C@H](C(=O)O)CC2)cc(-c2cc(C(C)(C)C)c3c(c2)C2(CCO3)CC2)n1CC1CCCCC1 [17/57]	7.4	7.5	794 nM			
Cc1c(C(=O)NCCC(C)(C)C(=O)O)cc(-c2ccc(S(=O)(=O)NC(C)(C)C)c(C(F)F)c2)n1CC1CCCCC1 [17/130]	7.5	7.6	251 nM			

Structure (SMILES)	pIC50 (FF) (RORγ; [2])	pIC50 (REN) (RORγ; [3])	IC50 [1, 4]	pIC50 (FF) (RORγ)	pIC50 (REN) (RORγ)	IC50 [1]
Cc1c(C(=O)N[C@H]2CC[C@H](C(=O)O)CC2)cc(-c2ccc(S(=O)(=O)NC(C)(C)C)c(C(F)(F)F)c2)n1CC1CCCCC1 [17/223]	7.1	7.2	398 nM			
Cc1c(C(=O)NC2CCOCC2)cc(-c2cc(C(C)(C)O)cc(C3(C)CC3)c2)n1CC1CCCCC1 [1/43]	7.1	7.1	1000 nM			
CNC(=O)C1(CNC(=O)c2cc(-c3ccc(S(=O)(=O)NC(C)(C)C)c(C(F)(F)F)c3)n(CC3CCCCC3)c2C)CCOCC1 [17/205]	6.9	7.0	794 nM			
Cc1c(S(=O)(=O)NC(C)(C)C)ccc(-c2cc(C(=O)NCCC(C)(C)C(=O)O)c(C)n2CC2CCCCC2)c1C(F)(F)F [17/286]	7.4	7.5	1260 nM			
Cc1c(C(=O)N[C@H]2C[C@H](C(=O)O)C2)cc(-c2cc(C(F)(F)F)c3c(c2)C(C)(C)C(=O)N3C)n1CC1CCCCC1 [17/149]	6.6	6.6	1260 nM			
Cc1c(C(=O)NCC2COCCN2C)cc(-c2cc(C(C)(C)C)c3c(c2)C2(CCO3)CC2)n1CC1CCCCC1 (stereo not drawn) [17/14]	5.9	5.7	1260 nM			
Cc1c(S(=O)(=O)NC(C)(C)C)ccc(-c2cc(C(=O)NCC(C)(C)O)c(C)n2CC2CCCCC2)c1Cl [17/291]	7.6	7.7	398 nM			
Cc1c(C(=O)NC2CCOCC2)cc(-c2ccc(S(=O)(=O)NC(C)(C)C)c(C(F)(F)F)c2)n1CC1(F)CCCCC1 [Example 28, 5-(4-(N-(tert-Butyl)sulfamoyl)-3-(trifluoromethyl)phenyl)-1-((1-fluorocyclohexyl)-methyl)-2-methyl-N-(tetrahydro-2H-pyran-4-yl)-1H-pyrrole-3-carboxamide]	6.6	6.9	1260 nM			
Cc1c(C(=O)NC2CCOCC2)cc(-c2ccc(S(=O)(=O)NC(C)(C)C)c(OC(F)(F)F)c2)n1CC1CCCCC1 [17/166]	7.8	8.0	158 nM			
Cc1c(C(=O)N[C@H]2C[C@H](C(=O)O)C2)cc(-c2cc(OC(F)(F)F)cc(C(=O)NC(C)(C)C)c2)n1CC1CCCCC1 [17/351]	6.8	6.9	2000 nM			
CC(C)(C)NS(=O)(=O)c1ccc(-c2cc(C(=O)NC3CCOCC3)c(CO)n2CC2CCCCC2)cc1C(C)(C)C [17/117]				6.0/7.6/7.7	6.0/7.6/7.7	1000 nM
Cc1c(C(=O)NC2COC2)cc(-c2cc(C(C)(C)C)c3c(c2)C2(CCO3)CC2)n1CC1CCCCC1 [1/38]	7.2	7.3	251 nM			
Cc1c(C(=O)NC2CCOCC2)cc(-c2ccc(-c3ccnn3C(C)C)c(C(C)(C)O)c2)n1CC1CCCCC1 [Example 27, 1-(Cyclohexylmethyl)-5-(3-(2-hydroxypropan-2-yl)-4-(1-isopropyl-1H-pyrazol-5-yl)phenyl)-2-methyl-N-(tetrahydro-2H-pyran-4-yl)-1H-pyrrole-3-carboxamide]	6.4	6.5	2000 nM			
Cc1c(C(=O)NCC2CC2)cc(-c2cc(C(C)(C)C)c3c(c2)C2(CCO3)CC2)n1CC1CCCCC1 [1/102]	6.4	6.4	501 nM			
Cc1c(C(=O)N[C@H]2CCOC2)cc(-c2cc(C(C)(C)C)cc(C3(C)CC3)c2)n1CC1CCCCC1 [17/65]	7.7	7.7				200 nM
